“Also recorded” adds a separate entry of the source.
What was measured:
SNU-5 cells = assay: Nanoparticle uptake by image-based flow cytometry; format: cell-based; conditions: for High uptake (red), percentage of cells / Low uptake (blue), percentage of cells / No uptake (green), percentage of cells: SNU-5, 8 h incubation, 100 μg/mL
Description: An Amnis FlowSight image-based flow cytometer equipped with a 488 nm (60 mW) and Side Scatter (7.85 mW) (EMD Millipore; Seattle, Wash.) was used to analyze cell samples. The FlowSight uses a CCD camera system to simultaneously collect both quantitative fluorescence and image data. For uptake studies, SNU-5 cells were incubated with Co-Alb-FITC NPs in the presence or absence of a commonly used inhibitor of macropinocytosis, 5-(N-ethyl-N-isopropyl)amiloride (EIPA), followed by fixation, and analysis via image-based flow cytometry.
SNU-5 cells were cultured at 37° C. and 5% CO2 in IMDM medium supplemented with 20% fetal bovine serum at cell densities between 1×10^5 and 1×10^6 cells/mL, and Jurkat cells were cultured at 37° C. and 5% CO2 in RPMI-1640 medium supplemented with 10% fetal bovine serum at cell densities between 1×10^5 and 1×10^6 cells/mL. For nanoparticle uptake experiments, cells were transferred to serum-starved IMDM or RPMI-1640 medium (0.1% FBS) and incubated at 37° C. and 5% CO2 for 10-16 h prior to dosing with nanoparticles. Cells (2 mL, 500,000 cells/mL) were incubated with the desired nanoparticle or control particle solution (100 μg/mL) with or without added EIPA for the times indicated. Cells were then washed twice with PBS, fixed for 12 min in 3.7% formaldehyde in PBS, washed twice with PBS, stained with NucBlue® Fixed Cell ReadyProbes® Reagent, and then washed twice more with PBS. Samples were either analyzed immediately or stored at 4° C. in the dark until analysis.

[1] = Analysis of PEGylation reaction by DLS, ethanolamine challenge of the Co linkage; format: physicochemical
Description: While sonicating (Branson, model #2510), human transferrin (0.5 mL of a 1 mg/mL aqueous solution, Sigma-Aldrich, cat. #T0665-50MG, lot #SLBC […]) was added. The solution had no discernible color and was allowed to stand undisturbed for 15 min. Dynamic light scattering (DLS, Microtrac Nanotrac Ultra) was used to measure particle size where the volume average particle size was 13.6 nm (standard deviation=4.2 nm). Hydrogen peroxide (20 μL of a 30% solution, Mallinckrodt AR, cat. #5240, lot #5240Y23470) was added while sonicating and the solution was thoroughly mixed by pipetting. The solution became faintly yellow but with no turbity. The solution was allowed to stand undisturbed for 30 min. Analysis of PEGylation reaction by DLS. The average diameter of both human transferrin (6.8 nm, SD=1.8 nm) and H2N-PEG-COOH (4.8 nm, SD=1.2 nm) were measured by DLS (FIG. 5). […] Addition of ethanolamine (50 mM) at this point led to a decrease in particle size back to 6.4 nm (SD=2.0) thereby degrading the prodrug linkage due to facile exchange of the Co amino ligands.

**Q.** With CCN(c1nc(N)c(C(=O)N=C(N)N)nc1Cl)C(C)C [EIPA, 5-(N-ethyl-N-isopropyl)amiloride] as the compound, how does the “Cell viability in the uptake experiment” value (SNU-5 cells; SNU-5, 100 μM EIPA) read?
**A.** slight decrease in cell viability

**Q.** And the “Effect on uptake of Co-Alb-FITC NPs” value (SNU-5 cells; SNU-5, pre-incubation with inhibitor)?
**A.** dramatic reduction in particle uptake; also recorded: reduce uptake in a dose-dependent manner

**Q.** What about the “Inhibitory effect on uptake over time” value (SNU-5 cells; SNU-5, uptake of Co-Alb-FITC NPs) of the same compound?
**A.** remained relatively constant over 8 h, but became greatly diminished at 24 h

**Q.** With FITC-Alb only as the compound, how does the “High uptake (red), percentage of cells” value (SNU-5 cells; EIPA 0 μM) read?
**A.** 13.9%

**Q.** What about the “Low uptake (blue), percentage of cells” value (SNU-5 cells; EIPA 0 μM) of the same compound?
**A.** 45.4%

**Q.** And the “No uptake (green), percentage of cells” value (SNU-5 cells; EIPA 0 μM)?
**A.** 40.6%

**Q.** What about the “High uptake (red), percentage of cells” value (SNU-5 cells; EIPA 75 μM) of the same compound?
**A.** 16.9%

**Q.** And the “Low uptake (blue), percentage of cells” value (SNU-5 cells; EIPA 75 μM)?
**A.** 11.8%

**Q.** And the “No uptake (green), percentage of cells” value (SNU-5 cells; EIPA 75 μM)?
**A.** 71.3%

**Q.** And the “Uptake in the presence of EIPA” value (SNU-5 cells; SNU-5, free protein 100 μg/mL, no NPs)?
**A.** reduction in uptake

**Q.** With transferrin-PEG conjugate as the compound, how does the “Particle size after addition of ethanolamine” value ([1]; ethanolamine 50 mM, not oxidized (Co(II))) read?
**A.** 6.4 nm

**Q.** What about the “Average diameter after addition of ethanolamine” value ([1]; oxidized 30 min with H2O2 (Co(III)) before ethanolamine) of the same compound?
**A.** 18.3 nm

From patent US20150299238A1, “SYNTHESIS AND USE OF PRODRUG COMPLEXES OF COBALT IN POLYMER THERAPEUTICS” (priority 2014, published 2015)
